From patent publication US20150017636A1, “Detection and Monitoring of Macrocyclic Lactone Resistance in Nematodes” (priority 2013, published 2015)
Where two headings read alike, the source gives them in different places.

Legend:
Haemonchus contortus = conditions: cited from earlier work
C. elegans IVR10 strain = experiment: Rescue of Dyf7 gene in IVR10: ivermectin sensitivity of transgenic worms on NGM plates; assay type: in vivo, Caenorhabditis elegans; conditions: Dyf7 ttx 1 and Dyf7 ttx 2 strains (IVR10 with wildtype Dyf7 transgene), 6 ng/mL ivermectin, plated as eggs, scored at two days
Protocol: FIG. 2 illustrates the rescue of Dyf7 gene in C. elegans IVR10 strain. Effect of Dyf7 rescued (strains Dyf7 ttx 1 and Dyf7 ttx 2) on ivermectin sensitivity. Strains “ttx ctrl 1” and “ttx ctrl 2” contain only the ttx-3:GFP transgenic marker. Results are shown as the percentage of growth of transgenic nematodes (as measured by GFP expression) in function of the type of transgenic nematode and treatment.
The wild-type Bristol N2 C. elegans strain was cultured in nematode growth medium (NGM) with OP50 Escherichia coli under standard conditions (Brenner, 1974). The IVR6 and IVR10 resistant strains to ivermectin were derived from Bristol N2, by successive increasing concentrations of ivermectin (James and Davey, 2009). […]
Genomic DNA extracted from C. elegans C43C3 cosmid (provided by the Sanger Institute, UK) was used to amplify the Dyf7 gene using the primers Dyf7-CeB-sense-5′-[…]-3′ (SEQ ID NO: 3) and Dyf7-CeB-antisense-5′-CTCATTTCTGGTCAAACG-3′ (SEQ ID NO: 4). […] The worms were separated into transgenic and non-transgenic based on GFP expression (green channel) and then each population scored for resistance phenotype.
To determine if the Dyf7 rescuing fragment rescues the ivermectin-sensitivity phenotype of IVR10, each strain was plated, as eggs, onto NGM plates containing 6 ng/mL ivermectin and DMSO control plates. At two days, the L4 and adult worms were scored for presence of the transgene. […]

For ivermectin, the “IVM Drug Phenotype” value (Haemonchus contortus; isolate 1202, Brazil) is listed as “Resistant”, the “IVM Drug Phenotype” value (Haemonchus contortus; isolate CRA, RSA) is listed as “Susceptible” and the “IVM Drug Phenotype” value (Haemonchus contortus; isolate Cedara, RSA) is listed as “Resistant”. For the same substance, the “IVM Drug Phenotype” value (Haemonchus contortus; isolate Coruzu, Argentina) was “Resistant”, the “IVM Drug Phenotype” value (Haemonchus contortus; isolate F15, Brazil) was “Resistant” and the “IVM Drug Phenotype” value (Haemonchus contortus; isolate Haecon, Australia) was “Resistant”. The “IVM Drug Phenotype” value (Haemonchus contortus; isolate Howick, RSA) was “Resistant”, the “IVM Drug Phenotype” value (Haemonchus contortus; isolate ISE, UK) was “Susceptible” and the “IVM Drug Phenotype” value (Haemonchus contortus; isolate Kokstad, RSA) was “Resistant”. For the same substance, the “IVM Drug Phenotype” value (Haemonchus contortus; isolate MOF23, USA) was “Moderate Resistant”, the “IVM Drug Phenotype” value (Haemonchus contortus; isolate MOF23-9*, USA, 23 generations of moxidectin selection) was “Resistant” and the “IVM Drug Phenotype” value (Haemonchus contortus; isolate PF23, USA) was “Susceptible”. The “IVM Drug Phenotype” value (Haemonchus contortus; isolate PF23-24, USA) was “Susceptible”, the “IVM Drug Phenotype” value (Haemonchus contortus; isolate Rog-gliswil, Switzerland) was “Resistant” and the “IVM Drug Phenotype” value (Haemonchus contortus; isolate SUL, Uruguay) was “Resistant”. For the same substance, the “IVM Drug Phenotype” value (Haemonchus contortus; isolate Sorin, France) was “Susceptible”, the “IVM Drug Phenotype” value (Haemonchus contortus; isolate Wallangra 85, Australia) was “Susceptible” and the “IVM Drug Phenotype” value (Haemonchus contortus; isolate Yallanbee, Australia) was “Susceptible”. For the same substance, the “IVM phenotype of the strain” value (Haemonchus contortus; strain IVF23, ivermectin selected from the PF strain) was “resistant” and the “growth of transgenic worms (escape from L1 arrest, L4 and adult worms scored for the transgene)” value (C. elegans IVR10 strain) was “no transgenic worms that escaped L1 arrest”.
